Results published in patent publication US10919877B2, “Multifunctional inhibitors of MEK/PI3K and mTOR/MEK/PI3K biological pathways and therapeutic methods using the same” (THE REGENTS OF THE UNIVERSITY OF MICHIGAN, priority 2016, dated 2021).
Values joined by “and” are separate entries in the source; they are usually repeats but may differ in a detail not shown here. Identical values can stand only once. Like-named read-outs stand apart in the source and are kept apart here.

Experiments:
PI3Kβ = biological target: T1, PI3Kβ (Homo sapiens, UniProt P42338); test: PI3K subtype enzyme inhibition; type: biochemical
T1 construct: purchased Life Technologies (assay run by the vendor)

PI3Kγ = biological target: T2, PI3Kγ (Homo sapiens, UniProt P48736); test: PI3K subtype enzyme inhibition; type: biochemical
T2 construct: purchased Life Technologies (assay run by the vendor)

MEK1 = biological target: T3, MEK1 (Homo sapiens, UniProt Q02750); test: In vitro MEK1 inhibition assay (Kinase-Glo luminescent kinase assay); type: biochemical; settings: average of three experiments each conducted in duplicate
T3 construct: purchased Sigma-Aldrich

[1] = system: pAkt in A549 and D54 cells; test: Cellular PI3K inhibition, Western blot of pAkt in cultured tumor cells; type: cell-based, human; settings: 1 hour; for PI3K activity indicated by level of pAKT: cultured A549 cells, Western blot vs DMSO
Method: The in vitro MEK1 and PI3K inhibitory activity of these series of compounds was also assessed in cultured tumor cells (D54, A549). Cellular efficacy of MEK1 and PI3K inhibition by inhibitor compounds was measured by changes in phosphorylation of pErk1/2 and pAkt, respectively. […] Cells were incubated in the presence of indicated compounds for 1 hour and lysates probed with specific antibodies against pAKT and pERK 1/2 and compared with vehicle control (DMSO). A549 (FIG. 2A) and D54 (FIG. 2B) cells were treated with inhibitors at the indicated concentrations for 1 hour and subjected to Western blot analysis.
Western Blot Analysis. Cells were seeded in six-well dishes 24 hours prior to treatment and incubated with the respective inhibitor compound solutions for 1 h. Cells were washed with phosphatebuffered saline (PBS) and lysed with NP-40 lysis buffer (1% NP40, 150 mM NaCl, and 25 mM Tris, pH 8.0) supplemented with protease inhibitors (Complete protease inhibitor cocktail, Roche, Basel, Switzerland) and phosphatase inhibitors (PhosSTOP, Roche, Basel, Switzerland). Concentration of protein was determined using Lowry assays (Bio-Rad, Hercules, Calif.), and equal amounts of whole cell protein lysate were loaded in each lane and resolved using 4-12% gradient Bis-Tris gel (Invitrogen, CA). Proteins were transferred to 0.2 μm nitrocellulose membranes (Invitrogen, CA). Membranes were incubated overnight at 4° C. with primary antibodies after blocking, followed by incubation with appropriate horseradish peroxidase (HRP) conjugated secondary antibody at room temperature for 1 hour. ECL-Plus was used to detect the activity of peroxidase according to the manufacturer's protocol (Amersham Pharmacia, Uppsala, Sweden). Antibodies raised against phospho-p44/42 MAPK (Erk1/2) (Thr202/Tyr204), pAKT(5473), phospho-p70 S6K* and total ERK, AKT antibodies were purchased from Cell Signaling Technology (Beverly, Mass., USA), and anti-β actin (conjugated with HRP) was purchased from Abcam (Cambridge, Mass., USA). Secondary HRP antibodies were purchased from Jackson ImmunoResearch (St. Louis, Mo., USA).

[2] = system: pErk1/2 in A549 and D54 cells; test: Cellular MEK1 inhibition, Western blot of pErk1/2 in cultured tumor cells; type: cell-based, human; settings: A549 and D54 cell lines, 1 hour
A549 lung tumor cells = test: Cell viability, AlamarBlue assay; type: cell-based, human; settings: dose dependence
D54 glioma cells = test: Cell viability, AlamarBlue assay; type: cell-based, human; settings: dose dependence
ERK1/2 phosphorylation = test: In vivo MEK1 inhibition in flank D54 and A549 tumor bearing mice (Western blot); settings: D54 and A549 tumors; compound 14: 375 mg/kg oral gavage, 2 h
Akt phosphorylation = test: In vivo PI3K inhibition in flank D54 and A549 tumor bearing mice (Western blot); settings: D54 and A549 tumors; compound 14: 375 mg/kg oral gavage, 2 h
PI3K = PI3K (Homo sapiens, UniProt P42336); test: In vitro PI3K inhibition assay (Adapta TR-FRET); type: biochemical; settings: average of three experiments each conducted in duplicate
PI3Kα = biological target: T4, PI3Kα (Homo sapiens, UniProt P42336); test: PI3K subtype enzyme inhibition; type: biochemical
T4 construct: purchased Life Technologies (assay run by the vendor)

PI3Kδ = biological target: T5, PI3Kδ (Homo sapiens, UniProt O00329); test: PI3K subtype enzyme inhibition; type: biochemical
T5 construct: purchased Life Technologies (assay run by the vendor)

mTOR = mTOR (Homo sapiens, UniProt P42345); test: mTOR enzyme inhibition; type: biochemical
[3] = system: A375 (melanoma), D54 (glioma), CT26 colorectal cancer, A2058 (melanoma) cell lines; test: Concurrent inhibition in tumor cell lines (multifunctional inhibitors); type: cell-based
From the text: The synthesis of another series of single entity, multifunctional inhibitors achieved by covalent linking of structural analogs of a PI3K inhibitor mTOR inhibitor, and an MEK inhibitor is also disclosed.

[4] = read-out: PI3K Subtype Enzyme Inhibition Data IC50 PI3Kα
[5] = table of additional PI3K inhibitors, read-out: PI3Kα IC50
[6] = read-out: PI3K Subtype Enzyme Inhibition Data IC50 PI3Kβ
[7] = table of additional PI3K inhibitors, read-out: PI3Kβ IC50
[8] = read-out: PI3K Subtype Enzyme Inhibition Data IC50 PI3Kγ
[9] = table of additional PI3K inhibitors, read-out: PI3Kγ IC50
[10] = read-out: PI3K Subtype Enzyme Inhibition Data IC50 PI3Kδ
[11] = table of additional PI3K inhibitors, read-out: PI3Kδ IC50

T5 sequence (O00329 whole entry): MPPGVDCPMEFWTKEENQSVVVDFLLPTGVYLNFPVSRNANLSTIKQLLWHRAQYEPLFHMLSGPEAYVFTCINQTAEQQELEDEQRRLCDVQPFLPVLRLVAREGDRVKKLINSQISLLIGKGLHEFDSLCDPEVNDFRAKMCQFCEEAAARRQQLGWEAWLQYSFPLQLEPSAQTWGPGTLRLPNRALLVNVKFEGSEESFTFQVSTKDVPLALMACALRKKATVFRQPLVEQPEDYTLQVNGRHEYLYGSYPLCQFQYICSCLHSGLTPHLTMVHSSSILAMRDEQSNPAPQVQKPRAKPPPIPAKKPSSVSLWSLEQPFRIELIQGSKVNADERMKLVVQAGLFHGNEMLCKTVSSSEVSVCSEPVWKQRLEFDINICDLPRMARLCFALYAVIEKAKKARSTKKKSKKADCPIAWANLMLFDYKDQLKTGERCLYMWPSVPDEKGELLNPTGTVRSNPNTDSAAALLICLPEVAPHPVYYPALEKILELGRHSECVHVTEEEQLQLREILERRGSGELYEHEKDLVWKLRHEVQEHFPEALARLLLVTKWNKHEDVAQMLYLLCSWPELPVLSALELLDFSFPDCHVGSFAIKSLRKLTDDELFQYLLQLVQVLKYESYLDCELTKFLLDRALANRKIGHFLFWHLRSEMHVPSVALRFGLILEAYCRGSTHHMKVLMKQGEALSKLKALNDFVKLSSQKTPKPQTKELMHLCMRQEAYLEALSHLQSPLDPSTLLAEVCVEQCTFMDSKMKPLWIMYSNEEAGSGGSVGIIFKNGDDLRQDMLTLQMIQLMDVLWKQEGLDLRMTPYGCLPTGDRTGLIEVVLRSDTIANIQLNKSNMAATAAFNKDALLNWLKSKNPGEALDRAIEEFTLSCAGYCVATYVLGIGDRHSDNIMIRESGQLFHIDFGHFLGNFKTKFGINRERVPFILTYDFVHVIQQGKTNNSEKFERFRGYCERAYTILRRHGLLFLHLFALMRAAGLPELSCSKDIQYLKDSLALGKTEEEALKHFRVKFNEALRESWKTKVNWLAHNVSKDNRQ
T5 sequence (P27986 whole entry partner): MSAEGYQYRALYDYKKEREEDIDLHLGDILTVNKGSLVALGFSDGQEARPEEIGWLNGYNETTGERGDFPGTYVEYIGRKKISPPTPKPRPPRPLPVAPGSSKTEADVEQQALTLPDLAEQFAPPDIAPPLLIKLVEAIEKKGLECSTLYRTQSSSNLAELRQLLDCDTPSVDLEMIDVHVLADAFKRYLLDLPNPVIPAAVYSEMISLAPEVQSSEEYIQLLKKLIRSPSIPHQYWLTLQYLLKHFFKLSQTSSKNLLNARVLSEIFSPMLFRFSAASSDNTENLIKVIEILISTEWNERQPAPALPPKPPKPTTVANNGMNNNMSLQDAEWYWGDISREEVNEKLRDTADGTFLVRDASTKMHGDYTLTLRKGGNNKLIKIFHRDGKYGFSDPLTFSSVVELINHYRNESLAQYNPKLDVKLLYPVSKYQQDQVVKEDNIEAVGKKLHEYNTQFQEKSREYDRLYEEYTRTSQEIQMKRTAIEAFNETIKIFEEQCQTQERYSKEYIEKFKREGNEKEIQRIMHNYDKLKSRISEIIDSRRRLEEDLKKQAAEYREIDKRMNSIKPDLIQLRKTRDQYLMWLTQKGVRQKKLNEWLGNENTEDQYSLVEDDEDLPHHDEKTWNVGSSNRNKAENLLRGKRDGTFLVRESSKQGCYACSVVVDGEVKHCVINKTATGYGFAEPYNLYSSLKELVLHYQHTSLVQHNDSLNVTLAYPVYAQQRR
T2 sequence (P48736 whole entry): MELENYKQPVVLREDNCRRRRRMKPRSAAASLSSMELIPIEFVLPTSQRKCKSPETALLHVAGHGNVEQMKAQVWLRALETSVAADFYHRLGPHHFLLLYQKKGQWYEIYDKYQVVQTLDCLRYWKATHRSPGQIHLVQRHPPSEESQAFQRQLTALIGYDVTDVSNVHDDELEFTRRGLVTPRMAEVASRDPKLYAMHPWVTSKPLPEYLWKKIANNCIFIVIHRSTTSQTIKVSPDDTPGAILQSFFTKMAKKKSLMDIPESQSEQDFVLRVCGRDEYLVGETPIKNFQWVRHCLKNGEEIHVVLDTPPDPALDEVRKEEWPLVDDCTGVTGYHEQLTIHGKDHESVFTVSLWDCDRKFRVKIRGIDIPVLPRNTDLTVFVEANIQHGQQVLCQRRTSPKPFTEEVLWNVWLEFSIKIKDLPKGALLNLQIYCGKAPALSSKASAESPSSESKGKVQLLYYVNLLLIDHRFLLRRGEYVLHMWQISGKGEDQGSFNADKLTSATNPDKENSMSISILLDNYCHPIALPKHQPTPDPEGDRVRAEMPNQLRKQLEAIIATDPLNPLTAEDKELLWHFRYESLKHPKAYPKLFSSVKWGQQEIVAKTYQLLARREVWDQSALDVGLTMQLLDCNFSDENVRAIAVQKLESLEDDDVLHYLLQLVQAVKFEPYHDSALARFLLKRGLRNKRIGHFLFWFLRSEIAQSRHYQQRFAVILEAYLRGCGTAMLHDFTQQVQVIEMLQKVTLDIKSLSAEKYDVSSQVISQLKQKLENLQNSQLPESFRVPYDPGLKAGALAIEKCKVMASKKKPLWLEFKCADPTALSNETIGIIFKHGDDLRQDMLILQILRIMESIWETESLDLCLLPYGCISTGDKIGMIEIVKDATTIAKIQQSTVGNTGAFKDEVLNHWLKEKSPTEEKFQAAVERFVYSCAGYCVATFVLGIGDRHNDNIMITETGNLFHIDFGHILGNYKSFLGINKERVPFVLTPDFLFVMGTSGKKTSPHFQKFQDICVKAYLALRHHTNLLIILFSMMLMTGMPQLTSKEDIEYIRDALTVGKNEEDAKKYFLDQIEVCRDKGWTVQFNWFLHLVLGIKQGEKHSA
T1 sequence (P42338 whole entry): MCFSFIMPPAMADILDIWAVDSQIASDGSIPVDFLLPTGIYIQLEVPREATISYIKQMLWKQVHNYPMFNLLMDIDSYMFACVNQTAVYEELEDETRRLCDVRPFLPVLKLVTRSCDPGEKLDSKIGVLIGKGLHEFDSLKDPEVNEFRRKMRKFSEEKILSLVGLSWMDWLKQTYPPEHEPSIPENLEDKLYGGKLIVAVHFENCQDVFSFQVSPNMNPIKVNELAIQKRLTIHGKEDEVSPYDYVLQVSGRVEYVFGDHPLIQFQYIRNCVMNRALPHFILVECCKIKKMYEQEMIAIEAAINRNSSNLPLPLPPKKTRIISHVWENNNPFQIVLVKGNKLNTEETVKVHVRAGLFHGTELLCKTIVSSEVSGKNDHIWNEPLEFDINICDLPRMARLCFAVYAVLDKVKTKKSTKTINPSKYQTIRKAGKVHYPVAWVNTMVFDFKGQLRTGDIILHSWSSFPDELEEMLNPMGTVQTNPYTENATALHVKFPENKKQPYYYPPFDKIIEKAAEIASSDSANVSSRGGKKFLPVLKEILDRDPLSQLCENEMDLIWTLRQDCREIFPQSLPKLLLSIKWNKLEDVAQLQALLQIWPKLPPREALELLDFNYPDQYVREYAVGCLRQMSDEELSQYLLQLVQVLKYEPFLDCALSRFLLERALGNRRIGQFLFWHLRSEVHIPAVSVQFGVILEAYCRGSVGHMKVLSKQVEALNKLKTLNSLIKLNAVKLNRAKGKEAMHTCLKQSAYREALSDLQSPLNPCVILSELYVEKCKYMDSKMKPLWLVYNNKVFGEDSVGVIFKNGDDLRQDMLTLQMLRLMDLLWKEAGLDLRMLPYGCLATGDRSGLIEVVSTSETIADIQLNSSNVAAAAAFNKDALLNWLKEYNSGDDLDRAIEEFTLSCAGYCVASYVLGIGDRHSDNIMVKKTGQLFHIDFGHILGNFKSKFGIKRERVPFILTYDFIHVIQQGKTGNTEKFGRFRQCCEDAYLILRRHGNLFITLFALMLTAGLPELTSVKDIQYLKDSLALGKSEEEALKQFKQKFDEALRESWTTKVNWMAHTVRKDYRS
T1 sequence (P27986 whole entry partner): as the sequence (P27986 whole entry partner) above
T4 sequence (P42336 whole entry): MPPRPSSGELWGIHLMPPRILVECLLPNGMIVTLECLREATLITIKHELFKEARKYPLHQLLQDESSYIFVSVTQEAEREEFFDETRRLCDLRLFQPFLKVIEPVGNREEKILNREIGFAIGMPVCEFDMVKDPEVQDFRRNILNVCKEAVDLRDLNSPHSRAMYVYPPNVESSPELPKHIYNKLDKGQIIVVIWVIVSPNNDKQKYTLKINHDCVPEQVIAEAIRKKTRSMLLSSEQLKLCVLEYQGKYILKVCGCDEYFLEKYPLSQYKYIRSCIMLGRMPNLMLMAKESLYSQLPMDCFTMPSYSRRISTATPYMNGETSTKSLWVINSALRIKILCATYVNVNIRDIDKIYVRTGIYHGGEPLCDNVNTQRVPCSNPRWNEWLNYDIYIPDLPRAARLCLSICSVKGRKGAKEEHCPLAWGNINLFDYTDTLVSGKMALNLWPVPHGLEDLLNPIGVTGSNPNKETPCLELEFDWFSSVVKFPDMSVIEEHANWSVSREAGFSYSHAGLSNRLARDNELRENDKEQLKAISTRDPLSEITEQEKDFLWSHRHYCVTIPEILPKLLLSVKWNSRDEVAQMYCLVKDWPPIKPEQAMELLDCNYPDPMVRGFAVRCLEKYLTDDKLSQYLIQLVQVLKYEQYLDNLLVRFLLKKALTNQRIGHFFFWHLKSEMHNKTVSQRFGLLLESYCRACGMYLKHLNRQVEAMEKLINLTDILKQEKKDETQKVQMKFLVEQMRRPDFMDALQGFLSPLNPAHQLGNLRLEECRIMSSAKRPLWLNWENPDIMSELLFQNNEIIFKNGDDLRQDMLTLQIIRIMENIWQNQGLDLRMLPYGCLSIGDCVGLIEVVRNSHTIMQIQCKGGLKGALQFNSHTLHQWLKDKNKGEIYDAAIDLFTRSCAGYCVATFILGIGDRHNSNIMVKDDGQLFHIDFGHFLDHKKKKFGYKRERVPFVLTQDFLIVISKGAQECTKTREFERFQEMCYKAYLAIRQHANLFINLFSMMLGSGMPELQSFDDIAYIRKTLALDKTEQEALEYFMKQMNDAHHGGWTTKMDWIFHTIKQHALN
T4 sequence (P27986 whole entry partner): as the sequence (P27986 whole entry partner) above

Compound | IC50 (PI3Kα; [4]) [nM] | IC50 (PI3Kα; [5]) [nM] | IC50 (PI3Kβ; [6]) [nM] | IC50 (PI3Kβ; [7]) [nM] | IC50 (PI3Kγ; [8]) [nM] | IC50 (PI3Kγ; [9]) [nM] | IC50 (PI3Kδ; [10]) [nM] | IC50 (PI3Kδ; [11]) [nM] | also measured
FC(F)c1nc2ccccc2n1-c1nc(N2CCNCC2)nc(N2CCOCC2)n1 |  |  |  |  |  |  |  |  | IC50 (PI3Kβ; mean ± SEM, read-out: PI3K Subtype Inhibition Activity PI3Kβ): 1090 ± 168 nM; IC50 (PI3Kγ; mean ± SEM, read-out: PI3K Subtype Inhibition Activity PI3Kγ): 1870 ± 283 nM
O=C(CNCCONC(=O)c1ccc(F)c(F)c1Nc1ccc(I)cc1F)NCCCCCC(=O)N1CCN(c2nc(N3CCOCC3)nc(-n3c(C(F)F)nc4ccccc43)n2)CC1 [Compound 7, N-(2-((2-((6-(4-(4-(2-(Difluoromethyl)-1H-benzo[d]imidazol-1-yl)-6-morpholino-1,3,5-triazin-2-yl)piperazin-1-yl)-6-oxohexyl)amino)-2-oxoethyl)amino)ethoxy)-3,4-difluoro-2-((2-fluoro-4-iodophenyl)amino)benzamide] |  |  |  |  |  |  |  |  | IC50 (MEK1): 0.5 ± 1.2 nM; PI3K activity indicated by level of pAKT [1]: high potency in inhibiting PI3K activity
O=C(NOCCNCCCCCC(=O)N1CCN(c2nc(N3CCOCC3)nc(-n3c(C(F)F)nc4ccccc43)n2)CC1)c1ccc(F)c(F)c1Nc1ccc(I)cc1F [Compound 9, N-(2-((6-(4-(4-(2-(Difluoromethyl)-1H-benzo[d]imidazol-1-yl)-6-morpholino-1,3,5-triazin-2-yl)piperazin-1-yl)-6-oxohexyl)amino)ethoxy)-3,4-difluoro-2-((2-fluoro-4-iodophenyl)amino)benzamide] |  |  |  |  |  |  |  |  | MEK inhibition in cells [2]: most pronounced; PI3K inhibition in cells ([1]; A549 and D54 cell lines, Western blot): most pronounced; PI3K activity indicated by level of pAKT [1]: high potency in inhibiting PI3K activity; cell viability (A549 lung tumor cells): as effective as the combination of ZSTK474 and PD0325901; cell viability (D54 glioma cells): as effective as the combination of ZSTK474 and PD0325901; phosphorylation of ERK1/2 (MEK1 activity) in excised tumor tissue (ERK1/2 phosphorylation): modulation of ERK1/2 and pAkt levels was also achieved; phosphorylation of Akt (PI3K activity) in excised tumor tissue (Akt phosphorylation): modulation of ERK1/2 and pAkt levels was also achieved
O=C(NOCCNCCCCS(=O)(=O)N1CCN(c2nc(N3CCOCC3)nc(-n3c(C(F)F)nc4ccccc43)n2)CC1)c1ccc(F)c(F)c1Nc1ccc(I)cc1F [Compound 11] |  |  |  |  |  |  |  |  | IC50 (MEK1): 56.7 ± 1.3 nM; IC50 (PI3K): 191 to 341 nM and 285 nM
CNCCNc1nc(N2CCOCC2)nc(-n2c(C(F)F)nc3ccccc32)n1 [ST-5-02] | 248 ± 24 | 248 ± 24 | 2900 ± 375 | 2900 ± 375 | 681 ± 90 | 681 ± 90 | 135 ± 19 | 135 ± 19 | 
CC(=O)N1CCN(c2nc(N3CCOCC3)nc(-n3c(C(F)F)nc4ccccc43)n2)CC1 [ST-5-03] |  |  | 14.3 ± 2.5 | 14.3 ± 2.5 | 21 ± 1 | 21 ± 1 |  |  | 
CN(CCOCCOCCONC(=O)c1ccc(F)c(F)c1Nc1ccc(I)cc1F)CC[N+](C)(C)CCOCCOCCC(=O)N1CCN(c2nc(N3CCOCC3)nc(-n3c(C(F)F)nc4ccccc43)n2)CC1 [ST-5-05] | 39 ± 2 |  | 2520 ± 557 |  | 2590 ± 660 |  | 56 ± 13 |  | 
CNC(=O)CCNc1nc(N2CCOCC2)nc(-n2c(C(F)F)nc3ccccc32)n1 [ST-5-21] | 20 ± 0.4 | 20 ± 0.4 | 431 ± 83 | 431 ± 83 | 67 ± 2.8 | 67 ± 2.8 | 26 ± 4.9 | 26 ± 4.9 | 
CC(=O)NCCNc1nc(N2CCOCC2)nc(-n2c(C(F)F)nc3ccccc32)n1 [ST-5-22] | 16.6 ± 1.4 |  | 199 ± 12 |  | 54 ± 1.5 |  | 9.5 ± 2.4 |  | 
O=C(O)CCNc1nc(N2CCOCC2)nc(-n2c(C(F)F)nc3ccccc32)n1 [ST-5-25] | 12.4 ± 0.7 | 12.4 ± 0.7 | 787 ± 106 | 787 ± 106 | 22.3 ± 0.7 | 22.3 ± 0.7 | 60 ± 3.4 | 60 ± 3.4 | 
O=S(=O)(Nc1cc(-c2ccc3ncc(N4CCNCC4)nc3c2)cnc1Cl)c1ccc(F)cc1 [ST-5-27] |  |  |  |  |  |  |  |  | IC50 (PI3Kα; read-out: PI3Kα IC50): < 0.495 nM; IC50 (PI3Kβ; read-out: PI3Kβ IC50): 477 ± 0.92 nM; IC50 (PI3Kγ; read-out: PI3Kγ IC50): 514 ± 0.23 nM; IC50 (PI3Kδ; read-out: PI3Kδ IC50): 0.83 ± 0.06 nM; IC50 (mTOR): 5.97 ± 0.27 nM
CC(=O)N1CCN(c2cnc3ccc(-c4cnc(Cl)c(NS(=O)(=O)c5ccc(F)cc5)c4)cc3n2)CC1 [ST-5-28] |  |  |  |  |  |  |  |  | IC50 (PI3Kα; read-out: PI3Kα IC50): < 0.495 nM; IC50 (PI3Kβ; read-out: PI3Kβ IC50): 5.36 ± 1.1 nM; IC50 (PI3Kγ; read-out: PI3Kγ IC50): 0.71 ± 0.2 nM; IC50 (PI3Kδ; read-out: PI3Kδ IC50): < 0.495 nM; IC50 (mTOR): 3.13 ± 0.14 nM
NOCCOCCOCCOCCC(=O)N1CCN(c2cnc3ccc(-c4cnc(Cl)c(NS(=O)(=O)c5ccc(F)cc5)c4)cc3n2)CC1 [ST-5-29] |  |  |  |  |  |  |  |  | IC50 (PI3Kα; read-out: PI3Kα IC50): < 0.495 nM; IC50 (PI3Kβ; read-out: PI3Kβ IC50): 1.33 ± 0.59 nM; IC50 (PI3Kγ; read-out: PI3Kγ IC50): 30.2 ± 0.14 nM; IC50 (mTOR): 6.77 ± 0.43 nM
O=C(NOCCOCCOCCOCCC(=O)N1CCN(c2cnc3ccc(-c4cnc(Cl)c(NS(=O)(=O)c5ccc(F)cc5)c4)cc3n2)CC1)c1ccc(F)c(F)c1Nc1ccc(I)cc1F [ST-182] |  |  |  |  |  |  |  |  | IC50 (PI3Kα; read-out: PI3Kα IC50): 2 ± 0.3 nM; IC50 (PI3Kβ; read-out: PI3Kβ IC50): 467 ± 44 nM; IC50 (PI3Kγ; read-out: PI3Kγ IC50): 34.1 ± 3 nM; IC50 (PI3Kδ; read-out: PI3Kδ IC50): 4.22 ± 0.64 nM; IC50 (mTOR): 53.1 ± 2.5 nM

Continued, in another order:

IC50 (PI3Kα; [4]) [nM] | IC50 (PI3Kα; [5]) [nM] | IC50 (PI3Kβ; [6]) [nM] | IC50 (PI3Kβ; [7]) [nM] | IC50 (PI3Kγ; [8]) [nM] | IC50 (PI3Kγ; [9]) [nM] | IC50 (PI3Kδ; [10]) [nM] | IC50 (PI3Kδ; [11]) [nM] | Compound | also measured
 |  | 214 ± 49 | 214 ± 49 | 140 ± 6.6 | 140 ± 6.6 |  |  | NOCCOCCOCCOCCC(=O)N1CCN(c2nc(N3CCOCC3)nc(-n3c(C(F)F)nc4ccccc43)n2)CC1 [ST-167] | 
292 ± 31 | 292 ± 31 | 2120 ± 444 | 2120 ± 444 | 771 ± 63 | 771 ± 63 | 291 ± 32 | 291 ± 32 | NCCNc1nc(N2CCOCC2)nc(-n2c(C(F)F)nc3ccccc32)n1 [ST-177] | 
20 ± 3 | 20 ± 3 | 208 ± 15 | 208 ± 15 | 64 ± 5 | 64 ± 5 | 17 ± 1 | 17 ± 1 | COCCNc1nc(N2CCOCC2)nc(-n2c(C(F)F)nc3ccccc32)n1 [ST-178] | 
39 ± 9 |  | 2210 ± 425 |  | 717 ± 136 |  | 52 ± 1.4 |  | CN(CCOCCOCCONC(=O)c1ccc(F)c(F)c1Nc1ccc(I)cc1F)CCN(C)CCOCCOCCC(=O)N1CCN(c2nc(N3CCOCC3)nc(-n3c(C(F)F)nc4ccccc43)n2)CC1 [ST-180] | Concurrent inhibition in tumor cell lines [3]: Concurrent inhibition was demonstrated
9.9 ± 1.2 | 9.9 ± 1.2 | 71 ± 8 | 71 ± 8 | 54 ± 1 | 54 ± 1 | 8.1 ± 1.7 | 8.1 ± 1.7 | OCCNc1nc(N2CCOCC2)nc(-n2c(C(F)F)nc3ccccc32)n1 [ST-187] | 
